One assay deals with Mut6 cells (TD-NSC). In words: luminescence-based Celltiter-Glo cell viability assay (ATP levels) on Mut6 tumor derived neuronal stem cells. Details: species or system mouse. The note with it: ATP activity as measure of viability, 96 hours. An excerpt: A mouse colony with 100% incidence of GBM and with conditional knockout of p53, pTEN and NF1 genes (Mut6; glioblastoma) was used to isolate primary neuronal stem cells from GBM tumors cultured in 5% Oxygen and in serum free media with defined growth factors. Primary cells from multiple tumors were pooled for high throughput screening with controls against the University of Texas Southwestern (UTSW) compound file, which encompasses ˜200,000 synthetic compounds that represent a large chemical space from several commercial vendors, including 1200 marketed drugs from the Prestwick Chemical Library®, and 600 compounds that went to pre-clinical tests from the NIH library.
A luminescence-based Celltiter-Glo® assay was performed to measure cell viability, using ATP levels as the readout. In brief, opaque-walled multiwell plates with Mut6 cells in culture medium (25 μl per well, 384-well plates) were prepared. Control wells containing medium without cells were prepared to obtain a value for background luminescence. Test compounds were added to experimental wells, and incubated according to culture protocol. The plate and its contents were incubated at 37° C., 5% […] for 96 hours. An ATP standard curve was generated immediately prior to adding the CellTiter-Glo® Reagent. A volume of CellTiter-Glo® Reagent equal to the volume of cell culture medium present in each well (25 μl of reagent to 25 μl of medium containing cells for a 384-well plate) was added. The contents were mixed for 2 minutes on an orbital shaker to induce cell lysis. The plate was allowed to incubate at room temperature for 10 minutes to stabilize the luminescent signal and luminescence recorded. (e.g. GloMax®, Lumistar, SPECTROstar, PHERAstar FS).
Compound 4C12 served as initial lead compound for analog development and for additional studies. […] See Wager, T T et al, “Moving beyond rules: the development of a central nervous system multi-parameter-optimization (CNS MPO) approach to enable alignment of drug-like properties,” ACS Chem. Neurosci. 1(6): 435-49 (2010). IC50 curves for the analog compounds plotted as ATP activity (y axis, a measure of viability) vs. concentration (nM) (x-axis) are shown in FIG. 9.
For the molecule `CC(C)(C)OC(=O)N1CCN(CCNC(=O)c2ccc(Sc3ccc(F)cc3)c([N+](=O)[O-])c2)CC1` [DS-2-127, Tert-butyl 4-(2-(4-((4-fluorophenyl)thio)-3-nitrobenzamido)ethyl)piperazine-1-carboxylate], the “EC50 (TD-NSC) (nM)” value was “Not Active”.

The assay is the same for the next values; noted with them: Mus musculus, 96 h, ATP activity as measure of viability, 96 hours; read-out: EC50 (TD-NSC).
On to `O=C(NCC1CCCO1)c1ccc(Sc2ccc(F)cc2)c([N+](=O)[O-])c1` (stereo not shown) [DS-1-275, 4-((4-fluorophenyl)thio)-3-nitro-N-((tetrahydrofuran-2-yl)methyl)benzamide], for which the EC50 is greater than 1000 nM.
As to `CCN1CCCC1COC(=O)c1ccc(Sc2ccc(F)cc2)c([N+](=O)[O-])c1` (stereo not shown) [DS-1-287, (1-ethylpyrrolidin-2-yl)methyl 4-((4-fluorophenyl)thio)-3-nitrobenzoate], the 50% effective concentration (EC50) is greater than 1000 nM.
Same read-out and setting: to `CCN1CCCC1CNC(=O)c1ccc(Sc2ccc(Cl)c(Cl)c2)c([N+](=O)[O-])c1` (stereo not shown) [DS-1-291, 4-((3,4-dichlorophenyl)thio)-N-((1-ethylpyrrolidin-2-yl)methyl)-3-nitrobenzamide] belongs 93 nM.
Consider `CCN1CCCC1CNC(=O)c1ccc(Sc2cccc(Cl)c2)c([N+](=O)[O-])c1` (stereo not shown) [DS-1-295, 4-((3-chlorophenyl)thio)-N-((1-ethylpyrrolidin-2-yl)methyl)-3-nitrobenzamide], for which the EC50 was 70 nM.
On the same count and under the same terms, to `CCN1CCCC1CNC(=O)c1ccc(Sc2ccc(C)c(C)c2)c([N+](=O)[O-])c1` (stereo not shown) [DS-1-299, 4-((3,4-dimethylphenyl)thio)-N-((1-ethylpyrrolidin-2-yl)methyl)-3-nitrobenzamide] belongs 169 nM; to `CCN1CCCC1CNC(=O)c1ccc(Sc2cccc(C)c2)c([N+](=O)[O-])c1` (stereo not shown) [DS-1-305, N-((1-ethylpyrrolidin-2-yl)methyl)-3-nitro-4-(m-tolylthio)benzamide], 86 nM.
`C#CCN(CC)CCNC(=O)c1ccc(Sc2ccc(F)cc2)c([N+](=O)[O-])c1` [DS-2-035, N-(2-(ethyl(prop-2-yn-1-yl)amino)ethyl)-4-((4-fluorophenyl)thio)-3-nitrobenzamide]: the EC50 came to 49 nM.
Take `CCN1CCCC1CNC(=O)c1ccc(C(O)c2ccc(F)cc2)c([N+](=O)[O-])c1` (stereo not shown) [DS-2-051, N-((1-ethylpyrrolidin-2-yl)methyl)-4-((4-fluorophenyl)(hydroxy)methyl)-3-nitrobenzamide]: the EC50 stood at 564 nM.
Regarding `CCN1CCCC1CNS(=O)(=O)c1ccc(Sc2ccc(F)cc2)c([N+](=O)[O-])c1` (stereo not shown) [DS-2-055, N-((1-ethylpyrrolidin-2-yl)methyl)-4-((4-fluorophenyl)thio)-3-nitrobenzenesulfonamide], the EC50 worked out at 155 nM.
In the case of `CCN1CCCC1CNC(=O)c1ccc(C(=O)c2ccc(F)cc2)c([N+](=O)[O-])c1` (stereo not shown) [DS-2-057, N-((1-ethylpyrrolidin-2-yl)methyl)-4-(4-fluorobenzoyl)-3-nitrobenzamide], the EC50 was 233 nM.
On the same count and under the same terms, to `CCN1CCCC1CN(C)C(=O)c1ccc(Sc2ccc(F)cc2)c([N+](=O)[O-])c1` (stereo not shown) [DS-2-061, N-((1-ethylpyrrolidin-2-yl)methyl)-4-((4-fluorophenyl)thio)-N-methyl-3-nitrobenzamide] belongs 15 nM; to `C#CCN(CC)CCNC(=O)c1ccc(Sc2ccc(N=[N+]=[N-])cc2)c([N+](=O)[O-])c1` [DS-2-091, 4-((4-azidophenyl)thio)-N-(2-(ethyl(prop-2-yn-1-yl)amino)ethyl)-3-nitrobenzamide], greater than 1000 nM; to `C#CCOc1ccc(Sc2ccc(C(=O)NCCN(CC)Cc3ccc(C(=O)c4ccccc4)cc3)cc2[N+](=O)[O-])cc1` [DS-2-093, N-(2-((4-benzoylbenzyl)(ethyl)amino)ethyl)-3-nitro-4-((4-(prop-2-yn-1-yloxy)phenyl)thio)benzamide], greater than 1000 nM.
Take `C#CCN(CC)CCNC(=O)c1ccc(Oc2ccc(C(=O)c3ccccc3)cc2)c([N+](=O)[O-])c1` [DS-2-097, 4-(4-benzoylphenoxy)-N-(2-(ethyl(prop-2-yn-1-yl)amino)ethyl)-3-nitrobenzamide]: the 50% effective concentration (EC50) was greater than 1000 nM.
On to `C#CCN(CC)CCNC(=O)c1ccc(Oc2ccccc2C(=O)c2ccccc2)c([N+](=O)[O-])c1` [DS-2-101, 4-(2-benzoylphenoxy)-N-(2-(ethyl(prop-2-yn-1-yl)amino)ethyl)-3-nitrobenzamide], for which the EC50 was greater than 1000 nM.
Turning to `C#CCN(CC)CCNC(=O)c1ccc(C(=O)c2ccc(F)cc2)c([N+](=O)[O-])c1` [DS-2-107, N-(2-(ethyl(prop-2-yn-1-yl)amino)ethyl)-4-(4-fluorobenzoyl)-3-nitrobenzamide], the EC50 was greater than 1000 nM.
For the molecule `C#CCOc1ccc(Sc2ccc(C(=O)NCCNCC)cc2[N+](=O)[O-])cc1` [DS-2-111, N-(2-(ethylamino)ethyl)-3-nitro-4-((4-(prop-2-yn-1-yloxy)phenyl)thio)benzamide], the EC50 is greater than 1000 nM.
Turning to `CCN1CCCC1CNC(=O)c1ccc([N+](=O)[O-])c(Sc2ccc(F)cc2)c1` (stereo not shown) [DS-2-115, N-((1-ethylpyrrolidin-2-yl)methyl)-3-((4-fluorophenyl)thio)-4-nitrobenzamide], the EC50 is 60 nM.
Regarding `CN1CCN(CCNC(=O)c2ccc(Sc3ccc(F)cc3)c([N+](=O)[O-])c2)CC1` [DS-2-121, 4-((4-fluorophenyl)thio)-N-(2-(4-methylpiperazin-1-yl)ethyl)-3-nitrobenzamide], the EC50 came out at 287 nM.
On the same count and under the same terms, to `O=C(NCCN1CCCCC1)c1ccc(Sc2ccc(F)cc2)c([N+](=O)[O-])c1` [DS-2-125, 4-((4-fluorophenyl)thio)-3-nitro-N-(2-(piperidin-1-yl)ethyl)benzamide] belongs 50 nM; to `O=C(NCCN1CCNCC1)c1ccc(Sc2ccc(F)cc2)c([N+](=O)[O-])c1` [DS-2-129, 4-((4-fluorophenyl)thio)-3-nitro-N-(2-(piperazin-1-yl)ethyl)benzamide], 141 nM; to `CCN1CCCC1CNC(=O)c1ccc(Sc2ccc(Cl)c(C(F)(F)F)c2)c([N+](=O)[O-])c1` (stereo not shown) [DS-2-143, 4-((4-chloro-3-(trifluoromethyl)phenyl)thio)-N-((1-ethylpyrrolidin-2-yl)methyl)-3-nitrobenzamide], 129 nM.
On to `CCN1CCCC1CNC(=O)c1ccc(Sc2cccc(N)c2)c([N+](=O)[O-])c1` (stereo not shown) [JCH-109, 4-((3-aminophenyl)thio)-N-((1-ethylpyrrolidin-2-yl)methyl)-3-nitrobenzamide], for which the EC50 was determined as 301 nM.
Consider `CCN1CCCC1CNC(=O)c1ccc(Sc2ccccc2Cl)c([N+](=O)[O-])c1` (stereo not shown) [JCH-111, 4-((2-chlorophenyl)thio)-N-((1-ethylpyrrolidin-2-yl)methyl)-3-nitrobenzamide], for which the EC50 turned out to be 119 nM.
On the same count and under the same terms, to `CCN1CCCC1CNC(=O)c1ccc(Sc2ccccc2C)c([N+](=O)[O-])c1` (stereo not shown) [JCH-114, N-((1-ethylpyrrolidin-2-yl)methyl)-3-nitro-4-(o-tolylthio)benzamide] belongs 78 nM; to `CCN1CCCC1CNC(=O)c1ccc(Sc2ccccc2OC)c([N+](=O)[O-])c1` (stereo not shown) [JCH-117, N-((1-ethylpyrrolidin-2-yl)methyl)-4-((2-methoxyphenyl)thio)-3-nitrobenzamide], 119 nM; to `CCN1CCCC1CNC(=O)c1ccc(Sc2ccc(Cl)cc2Cl)c([N+](=O)[O-])c1` (stereo not shown) [JCH-120, 4-((2,4-dichlorophenyl)thio)-N-((1-ethylpyrrolidin-2-yl)methyl)-3-nitrobenzamide], 68 nM.
Same read-out and setting: to `CCN1CCCC1CNC(=O)c1ccc(Sc2cc(Cl)cc(Cl)c2)c([N+](=O)[O-])c1` (stereo not shown) [JCH-124, 4-((3,5-dichlorophenyl)thio)-N-((1-ethylpyrrolidin-2-yl)methyl)-3-nitrobenzamide] belongs 510 nM.
As to `CCN1CCCC1CNC(=O)c1ccc(Sc2ccc3ccccc3n2)c([N+](=O)[O-])c1` (stereo not shown) [JCH-127, N-((1-ethylpyrrolidin-2-yl)methyl)-3-nitro-4-(quinolin-2-ylthio)benzamide], the EC50 amounted to 125 nM.
On the same count and under the same terms, to `CCN1CCCC1CNC(=O)c1ccc(Sc2cccc(O)c2)c([N+](=O)[O-])c1` (stereo not shown) [JCH-140, N-((1-ethylpyrrolidin-2-yl)methyl)-4-((3-hydroxyphenyl)thio)-3-nitrobenzamide] belongs 139 nM; to `CCN1CCCC1CNC(=O)c1ccc(Sc2ccccc2O)c([N+](=O)[O-])c1` (stereo not shown) [JCH-143, N-((1-ethylpyrrolidin-2-yl)methyl)-4-((2-hydroxyphenyl)thio)-3-nitrobenzamide], 160 nM.
The same measure, in the same setting: the figure for `CCN1CCCC1CNC(=O)c1ccc(Sc2cccc(OC)c2)c([N+](=O)[O-])c1` (stereo not shown) [JCH-146, N-((1-ethylpyrrolidin-2-yl)methyl)-4-((3-methoxyphenyl)thio)-3-nitrobenzamide] is 185 nM; for `CCN1CCCC1CNC(=O)c1ccc(Sc2ccccc2CO)c([N+](=O)[O-])c1` (stereo not shown) [JCH-149, N-((1-ethylpyrrolidin-2-yl)methyl)-4-((2-(hydroxymethyl)phenyl)thio)-3-nitrobenzamide] it is 154 nM.

The values are drawn from patent US11548894B2, “Benzamide or benzamine compounds useful as anticancer agents for the treatment of human cancers” (The Board of Regents of the University of Texas System, priority 2015, dated 2023).
